In US20230279025A1, “KRAS G12D INHIBITORS” (Mirati Therapeutics, Inc., priority 2020, published 2023):
pIC50, pKd: −log10 of the molar value.

What was measured:
KRas G12D [1] = target: T1, KRas G12D (Homo sapiens (Human), UniProt P01116, G12D); experiment: KRas G12D Binding Assay (TR-FRET displacement of Cy5 labelled tracer); conditions: GDP-loaded KRAS G12D (amino acids 1:169), 60 minute incubation at 22° C.
Procedure: After a 60 minute incubation at 22° C., the reaction was measured using a PerkinElmer EnVision multimode plate reader via TR-FRET dual wavelength detection, and the percent of control (POC) calculated using a ratiometric emission factor. […] The POC values were fit to a 4-parameter logistic curve and the IC50 value was determined as the concentration where the curve crosses 50 POC.
ND stands for “not determined.”
Target sequence in this assay (P01116 other isoform, or with tags, fused parts or gaps G12D): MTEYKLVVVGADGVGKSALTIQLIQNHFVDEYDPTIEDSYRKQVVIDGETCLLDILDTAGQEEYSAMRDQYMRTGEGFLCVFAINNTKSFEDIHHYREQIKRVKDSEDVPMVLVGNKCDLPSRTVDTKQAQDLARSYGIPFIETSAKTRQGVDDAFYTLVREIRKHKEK

KRas G12D [2] = target: T1, KRas G12D; experiment: KRas G12D Surface Plasmon Resonance (SPR) Binding Assay; conditions: Biacore T200, immobilized biotinylated KRAS protein, 1:1 binding model
Procedure: Briefly, 1L of 1.05X HBS-Mg buffer (262.5 mM Bioultra Hepes, pH 7.5, 157.5 mM NaCl, 105 mM MgCl2, 0.525 mM TCEP, 0.0305% Brij-35) was prepared and filter sterilized using a 0.22 μm bottle top filter. Approximately 50 mL of 1.05X HBS-Mg buffer was removed and saved for future dilutions. A 50 mL aliquot of DMSO (Sigma Aldrich DMSO Lot. #SHBK2079) was added and continued to stir for 10 minutes, creating the final 1.0X HBS-Mg buffer (250 mM Bioultra Hepes pH 7.5, 150 mM NaCl, 100 mM MgCl2, 0.5 mM TCEP, 0.03% Brij-35).
Biacore T200 instrument was primed using 1.0X HBS-Mg buffer before docking a GE Streptavidin (SA) chip and then primed two additional times prior to beginning the immobilization step. All immobilized protein mixtures were created using 3-5 mg/mL Biotinylated Avidin-tagged KRAS protein using the following immobilization settings: SA chip type, 1 flow cells per cycle, 720 second contact time, and 5 ul/min flow rate. Normalization of the detector was also performed during the immobilization step using the GE BiaNormalize solution.
All compounds were diluted to 10 mM in 100% DMSO prior to being diluted 20X in 1.05X buffer. Another 10X dilution was created using 1.0X buffer prior to performing a series of 3X dilutions to create a compound concentration curve using the following assay settings: 20C analysis temperature, General Settings=10 Hz data collection rate and multi-detection; Assay Steps=all set to LMW kinetics; Cycle Types=LMW kinetics (60 s contact time, 120 s dissociation time, 100 ul/min flow rate, extra wash after injection with 50% DMSO, flow path 1,2,3,4); Flow path detection=2-1, 4-3). Data evaluation was performed using the Biacore T200 Evaluation software and data fit to 1:1 binding model. ND=not determined.
Target sequence in this assay (P01116-2 other isoform, or with tags, fused parts or gaps G12D): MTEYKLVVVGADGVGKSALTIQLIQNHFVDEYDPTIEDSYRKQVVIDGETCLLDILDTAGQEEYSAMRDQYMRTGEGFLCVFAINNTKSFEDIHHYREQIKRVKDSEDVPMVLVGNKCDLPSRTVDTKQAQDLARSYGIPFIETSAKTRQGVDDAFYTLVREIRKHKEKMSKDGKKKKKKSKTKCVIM

SMILES | pIC50 (KRas G12D [1]) | pKd (KRas G12D [2])
COc1ccc(CCOc2nc(N3C[C@H]4CC[C@@H](C3)N4)c3cnc(-c4cccc5cccc(Cl)c45)c(F)c3n2)cn1 [Example 86, 4-((1R,5S)-3,8-diazabicyclo[3.2.1]octan-3-yl)-7-(8-chloronaphthalen-1-yl)-8-fluoro-2-(2-(6-methoxypyridin-3-yl)ethoxy)pyrido[4,3-d]pyrimidine] | 5.10 | 3.28
Oc1cc(-c2ncc3c(N4C[C@H]5CC[C@@H](C4)N5)nc(N4CCCC4)nc3c2F)c2ccccc2c1 [Example 118, 4-(4-((1R,5S)-3,8-diazabicyclo[3.2.1]octan-3-yl)-8-fluoro-2-(pyrrolidin-1-yl)pyrido[4,3-d]pyrimidin-7-yl)naphthalen-2-ol 2,2,2-trifluoroacetate] | 6.32 | 5.97
CN1CCC[C@H]1COc1nc(N2CC3CCC(Cl)(C2)N3)c2cnc(-c3cc(O)cc4ccccc34)c(F)c2n1 (stereo partly drawn) [Example 160, 4-(4-(1-chloro-3,8-diazabicyclo[3.2.1]octan-3-yl)-8-fluoro-2-(((S)-1-methylpyrrolidin-2-yl)methoxy)pyrido[4,3-d]pyrimidin-7-yl)naphthalen-2-ol bis(2,2,2-trifluoroacetate)] | 6.92 | 9.52
OCC[C@@H](CO)Oc1nc(N2C[C@H]3CC[C@@H](C2)N3)c2cnc(-c3cccc4cccc(Cl)c34)c(F)c2n1 [Example 58, (S)-2-((4-((1R,5S)-3,8-diazabicyclo[3.2.1]octan-3-yl)-7-(8-chloronaphthalen-1-yl)-8-fluoropyrido[4,3-d]pyrimidin-2-yl)oxy)butane-1,4-diol] | 5.63 | 5.32
COc1cccnc1CCOc1nc(N2C[C@H]3CC[C@@H](C2)N3)c2cnc(-c3cc(O)cc4ccccc34)c(F)c2n1 [Example 140, 4-(4-((1R,5S)-3,8-diazabicyclo[3.2.1]octan-3-yl)-8-fluoro-2-(2-(3-methoxypyridin-2-yl)ethoxy)pyrido[4,3-d]pyrimidin-7-yl)naphthalen-2-ol] |  | 5.25
CN1CCC[C@H]1COc1nc(N2CC3CCC(C=O)(C2)N3)c2cnc(-c3cc(O)cc4ccccc34)c(F)c2n1 (stereo partly drawn) [Example 214, 3-(8-fluoro-7-(3-hydroxynaphthalen-1-yl)-2-(((S)-1-methylpyrrolidin-2-yl)methoxy)pyrido[4,3-d]pyrimidin-4-yl)-3,8-diazabicyclo[3.2.1]octane-1-carbaldehyde] |  | 6.55
CN1C[C@H](C(F)(F)F)C[C@H]1COc1nc(N2C[C@H]3CC[C@@H](C2)N3)c2cnc(-c3cc(O)cc4ccccc34)c(F)c2n1 [Example 28, 4-(4-((1R,5S)-3,8-diazabicyclo[3.2.1]octan-3-yl)-8-fluoro-2-(((2S,4R)-1-methyl-4-(trifluoromethyl)pyrrolidin-2-yl)methoxy)pyrido[4,3-d]pyrimidin-7-yl)naphthalen-2-ol] |  | 7.23
CN1CCC[C@H]1CCOc1nc(N2C[C@H]3CC[C@@H](C2)N3)c2cnc(-c3cc(O)cc4ccccc34)c(F)c2n1 [Example 10, 4-(4-((1R,5S)-3,8-diazabicyclo[3.2.1]octan-3-yl)-8-fluoro-2-(2-((S)-1-methylpyrrolidin-2-yl)ethoxy)pyrido[4,3-d]pyrimidin-7-yl)naphthalen-2-ol] |  | 7.47
CN1CCC[C@H]1COc1nc(N2C[C@H]3CC[C@@H](C2)N3)c2cnc(-c3cccc4c3CCC4)c(F)c2n1 [Example 23, 4-((1R,5S)-3,8-diazabicyclo[3.2.1]octan-3-yl)-7-(2,3-dihydro-1H-inden-4-yl)-8-fluoro-2-(((S)-1-methylpyrrolidin-2-yl)methoxy)pyrido[4,3-d]pyrimidine] |  | 6.09
CN(C)C(=O)CCOc1nc(N2C[C@H]3CC[C@@H](C2)N3)c2cnc(-c3cc(O)cc4ccccc34)c(F)c2n1 [Example 13, 3-((4-((1R,5S)-3,8-diazabicyclo[3.2.1]octan-3-yl)-8-fluoro-7-(3-hydroxynaphthalen-1-yl)pyrido[4,3-d]pyrimidin-2-yl)oxy)-N,N-dimethylpropanamide] |  | 6.29
CN1CCC[C@H]1COc1nc(N2CC3CCC(CO)(C2)N3)c2cnc(-c3cc(O)cc4ccccc34)c(F)c2n1 (stereo partly drawn) [Example 215, 4-(8-fluoro-4-(1-(hydroxymethyl)-3,8-diazabicyclo[3.2.1]octan-3-yl)-2-(((S)-1-methylpyrrolidin-2-yl)methoxy)pyrido[4,3-d]pyrimidin-7-yl)naphthalen-2-ol bis(2,2,2-trifluoroacetate)] |  | 7.15
CCN1CCC[C@H]1COc1nc(N2C[C@H]3CC[C@@H](C2)N3)c2cnc(-c3cc(O)cc4ccccc34)c(F)c2n1 [Example 11, 4-(4-((1R,5S)-3,8-diazabicyclo[3.2.1]octan-3-yl)-2-(((S)-1-ethylpyrrolidin-2-yl)methoxy)-8-fluoropyrido[4,3-d]pyrimidin-7-yl)naphthalen-2-ol] |  | 8.31
Oc1cc(-c2ncc3c(N4C[C@H]5CC[C@@H](C4)N5)nc(OCc4ccccc4F)nc3c2F)c2ccccc2c1 [Example 217, 4-(4-((1R,5S)-3,8-diazabicyclo[3.2.1]octan-3-yl)-8-fluoro-2-((2-fluorobenzyl)oxy)pyrido[4,3-d]pyrimidin-7-yl)naphthalen-2-ol] |  | 5.53
CC(Oc1nc(N2C[C@H]3CC[C@@H](C2)N3)c2cnc(-c3cc(O)cc4ccccc34)c(F)c2n1)C1CCCN1C (stereo partly drawn) [Example 27, 4-(4-((1R,5S)-3,8-diazabicyclo[3.2.1]octan-3-yl)-8-fluoro-2-(1-(1-methylpyrrolidin-2-yl)ethoxy)pyrido[4,3-d]pyrimidin-7-yl)naphthalen-2-ol] |  | 7.59
Oc1cc(-c2ncc3c(N4C[C@H]5CC[C@@H](C4)N5)nc(OC[C@@H]4CCCN4Cc4ccccc4)nc3c2F)c2ccccc2c1 [Example 12, 4-(2-(((S)-1-benzylpyrrolidin-2-yl)methoxy)-4-((1R,5S)-3,8-diazabicyclo[3.2.1]octan-3-yl)-8-fluoropyrido[4,3-d]pyrimidin-7-yl)naphthalen-2-ol] |  | 7.96
Oc1cccc2cccc(-c3ncc4c(N5C[C@H]6CC[C@@H](C5)N6)nc(OCC56CCCN5CCC6)nc4c3F)c12 [Example 237, 8-(4-((1R,5S)-3,8-diazabicyclo[3.2.1]octan-3-yl)-8-fluoro-2-((tetrahydro-1H-pyrrolizin-7a(5H)-yl)methoxy)pyrido[4,3-d]pyrimidin-7-yl)naphthalen-1-ol] | 6.30 | 
C#Cc1cccc2cc(OC)cc(-c3ncc4c(N5C[C@H]6CC[C@@H](C5)N6)nc(OCC56CCCN5CCC6)nc4c3F)c12 [Example 231, 4-((1R,5S)-3,8-diazabicyclo[3.2.1]octan-3-yl)-7-(8-ethynyl-3-methoxynaphthalen-1-yl)-8-fluoro-2-((hexahydro-1H-pyrrolizin-7a-yl)methoxy)pyrido[4,3-d]pyrimidine] | 7.70 | 
CC1(c2ccccc2-c2ncc3c(N4C[C@H]5CC[C@@H](C4)N5)nc(OCC45CCCN4CCC5)nc3c2F)CC1 [Example 305, 4-((1R,5S)-3,8-diazabicyclo[3.2.1]octan-3-yl)-8-fluoro-2-((hexahydro-1H-pyrrolizin-7a-yl)methoxy)-7-(2-(1-methylcyclopropyl)phenyl)pyrido[4,3-d]pyrimidine] | 6.44 | 
Fc1c(-c2cccc3cccc(Cl)c23)ncc2c(N3C[C@H]4CC[C@@H](C3)N4)nc(OCCC3CC(F)(F)C3)nc12 [Example 129, 4-((I R,5S)-3,8-diazabicyclo[3.2.1]octan-3-yl)-7-(8-chloronaphthalen-1-yl)-2-(2-(3,3-difluorocyclobutyl)ethoxy)-8-fluoropyrido[4,3-d]pyrimidine] | 5.39 | 
c1ccc2c(-c3cc4nc(OCC56CCCN5CCC6)nc(N5C[C@H]6CC[C@@H](C5)N6)c4cn3)cccc2c1 [Example 233, 4-((1R,5S)-3,8-diazabicyclo[3.2.1]octan-3-yl)-7-(naphthalen-1-yl)-2-((tetrahydro-1H-pyrrolizin-7a(5H)-yl)methoxy)pyrido[4,3-d]pyrimidine] | 6.41 | 
Oc1cc(-c2ncc3c(N4C[C@H]5CC[C@@H](C4)N5)nc(OC[C@@]45CCCN4C[C@H](F)C5)nc3c2F)c2c(F)c(F)ccc2c1 [Example 246, 4-(4-((1R,5S)-3,8-diazabicyclo[3.2.1]octan-3-yl)-8-fluoro-2-(((2R,7aS)-2-fluorohexahydro-1H-pyrrolizin-7a-yl)methoxy)pyrido[4,3-d]pyrimidin-7-yl)-5,6-difluoronaphthalene-2-ol] | 9.22 | 
CC1(N)CN(c2nc(N3C[C@H]4CC[C@@H](C3)N4)c3cnc(-c4cccc5cccc(Cl)c45)c(F)c3n2)C1 [Example 125, 1-(4-((1R,5S)-3,8-diazabicyclo[3.2.1]octan-3-yl)-7-(8-chloronaphthalen-1-yl)-8-fluoropyrido[4,3-d]pyrimidin-2-yl)-3-methylazetidin-3-amine] | 6.18 | 
